US20140357594A1, “NEW COMPOUNDS” (GlaxoSmithkline Intellectual Property (No.2) Limited, priority 2011, published 2014)

Experiments:
[1] = target: T1, Human full-length DNMT1 enzyme (Homo sapiens, UniProt P26358); test: DNMT inhibition assay (3H-SAM filter plate scintillation), DNMT1; format: biochemical; conditions: Poly(dIdC) DNA 0.002 mg/mL, H3 SAM 500 nM, 30 min pre-incubation without SAM, 37° C. 1 h
T1 construct: Human full-length DNMT1 enzyme purchased from BPS Biosciences; purchased BPS Biosciences
Experimental: (§1) Catalytic domains of human DNMT 3a/3L enzyme were produced by Accelagen. Human full-length DNMT1 enzyme purchased from BPS Biosciences. Poly(dldC) DNA (Sigma) was used at 0.002 mg/mL. H3 SAM (Perkin Elmer) was used at 500 nM. DNA, DNMT enzyme, and inhibitors were mixed with assay buffer (20 mM Tris pH8, 5% glycerol, 1 mM EDTA, 100 μg/mL BSA, 1 mM DTT, 50 mM NaCl) and pre-incubated without SAM for 30 min. H3 SAM was then added to initiate the methylation reaction which continues at 37° C. for 1 h. Reaction mixture was then transferred to a filter plate (Millipore Multiscreen HTS DE), then washed with 50 mM H2PO4 and 95% Ethanol. Scintillation counts were measured on the Perkin Elmer Microbeta scintillation counter.

[2] = target: T2, Catalytic domains of human DNMT 3a/3L enzyme (Homo sapiens, UniProt Q9Y6K1); test: DNMT inhibition assay (3H-SAM filter plate scintillation), DNMT 3a/3L; format: biochemical; conditions: Poly(dIdC) DNA 0.002 mg/mL, H3 SAM 500 nM, 30 min pre-incubation without SAM, 37° C. 1 h; read-out: DNMT 3a/3I IC50
T2 construct: Catalytic domains of human DNMT 3a/3L enzyme were produced by Accelagen; purchased Accelagen
Experimental: as §1

T2 sequence (Q9Y6K1 634-912 limits assumed): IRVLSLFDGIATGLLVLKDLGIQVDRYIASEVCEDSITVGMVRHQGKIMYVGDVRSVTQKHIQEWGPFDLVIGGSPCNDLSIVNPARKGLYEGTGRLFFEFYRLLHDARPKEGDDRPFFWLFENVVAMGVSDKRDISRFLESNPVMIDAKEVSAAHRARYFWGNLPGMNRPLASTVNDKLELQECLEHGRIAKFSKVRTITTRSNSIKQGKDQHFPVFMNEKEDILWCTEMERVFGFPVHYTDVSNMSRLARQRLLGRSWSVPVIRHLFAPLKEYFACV
T2 sequence (Q9UJW3 178-386 partner limits assumed): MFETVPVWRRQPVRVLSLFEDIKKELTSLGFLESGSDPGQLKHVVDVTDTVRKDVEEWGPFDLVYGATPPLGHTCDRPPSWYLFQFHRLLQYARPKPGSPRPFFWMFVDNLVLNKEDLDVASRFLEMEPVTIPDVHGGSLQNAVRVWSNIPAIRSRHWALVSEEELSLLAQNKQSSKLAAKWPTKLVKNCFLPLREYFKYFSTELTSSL
T1 sequence (P26358 whole entry): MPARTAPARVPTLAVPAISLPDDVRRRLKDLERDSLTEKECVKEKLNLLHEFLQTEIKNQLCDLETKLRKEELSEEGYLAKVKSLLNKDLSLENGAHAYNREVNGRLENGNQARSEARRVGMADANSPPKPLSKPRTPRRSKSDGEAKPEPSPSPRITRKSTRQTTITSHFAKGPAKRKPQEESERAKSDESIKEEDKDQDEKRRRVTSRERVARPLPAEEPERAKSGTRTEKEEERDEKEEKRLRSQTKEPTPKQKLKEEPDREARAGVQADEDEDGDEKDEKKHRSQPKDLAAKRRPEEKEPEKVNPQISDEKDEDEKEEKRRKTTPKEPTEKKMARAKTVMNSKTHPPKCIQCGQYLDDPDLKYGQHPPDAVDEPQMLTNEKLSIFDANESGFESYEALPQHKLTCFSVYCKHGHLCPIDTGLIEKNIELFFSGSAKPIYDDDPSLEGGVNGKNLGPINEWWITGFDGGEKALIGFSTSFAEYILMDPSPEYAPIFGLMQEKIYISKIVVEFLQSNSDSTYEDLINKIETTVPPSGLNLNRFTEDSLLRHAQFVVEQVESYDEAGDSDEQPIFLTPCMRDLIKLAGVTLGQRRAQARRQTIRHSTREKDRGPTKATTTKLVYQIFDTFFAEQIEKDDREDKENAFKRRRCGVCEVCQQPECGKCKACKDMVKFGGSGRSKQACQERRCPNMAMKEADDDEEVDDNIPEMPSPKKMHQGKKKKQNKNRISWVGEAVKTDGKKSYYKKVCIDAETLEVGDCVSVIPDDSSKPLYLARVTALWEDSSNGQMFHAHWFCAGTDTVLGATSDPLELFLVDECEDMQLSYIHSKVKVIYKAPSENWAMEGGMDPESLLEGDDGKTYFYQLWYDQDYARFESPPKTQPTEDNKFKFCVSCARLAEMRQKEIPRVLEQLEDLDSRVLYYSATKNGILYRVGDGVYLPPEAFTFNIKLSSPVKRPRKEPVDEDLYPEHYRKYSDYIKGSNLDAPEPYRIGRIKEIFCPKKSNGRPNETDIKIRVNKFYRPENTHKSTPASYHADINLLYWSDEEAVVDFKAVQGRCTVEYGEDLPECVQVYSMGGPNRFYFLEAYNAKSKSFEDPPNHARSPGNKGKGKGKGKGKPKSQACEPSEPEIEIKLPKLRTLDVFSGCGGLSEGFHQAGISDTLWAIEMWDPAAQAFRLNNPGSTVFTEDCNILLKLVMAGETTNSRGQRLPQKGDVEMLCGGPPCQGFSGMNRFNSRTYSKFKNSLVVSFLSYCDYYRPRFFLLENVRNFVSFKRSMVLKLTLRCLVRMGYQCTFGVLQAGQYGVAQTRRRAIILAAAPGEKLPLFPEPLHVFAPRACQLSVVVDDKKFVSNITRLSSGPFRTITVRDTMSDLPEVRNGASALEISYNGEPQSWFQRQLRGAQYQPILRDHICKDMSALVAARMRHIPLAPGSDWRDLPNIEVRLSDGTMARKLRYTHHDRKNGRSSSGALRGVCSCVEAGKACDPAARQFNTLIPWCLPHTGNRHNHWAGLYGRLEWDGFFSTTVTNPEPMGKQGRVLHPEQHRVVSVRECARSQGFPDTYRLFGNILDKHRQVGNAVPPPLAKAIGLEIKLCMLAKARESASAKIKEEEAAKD

SMILES | IC50 [1] | IC50 [2]
Nc1ncnc2c1ncn2[C@H]1O[C@@H](CSCCNc2nccc(Cl)n2)[C@H](O)[C@@H]1O [Example 1, (2S,3S,4R,5R)-2-(6-Amino-9H-purin-9-yl)-5-(((2-((4-chloropyrimidin-2-yl)amino)ethyl)thio)methyl)tetrahydrofuran-3,4-diol] | > 300 µM | 3 µM
Nc1ncnc2c1ncn2[C@H]1O[C@@H](CSCCNc2ccnc(Cl)n2)[C@H](O)[C@@H]1O [Example 2, (2S,3S,4R,5R)-2-(6-Amino-9H-purin-9-yl)-5-(((2-((2-chloropyrimidin-4-yl)amino)ethyl)thio)methyl)tetrahydrofuran-3,4-diol] |  | 95 µM
Nc1ncnc2c1ncn2[C@H]1O[C@@H](CSCCNc2ccncn2)[C@H](O)[C@@H]1O [Example 3, (2S,3S,4R,5R)-2-(6-Amino-9H-purin-9-yl)-5-(((2-(pyrimidin-4-ylamino)ethyl)thio)methyl)tetrahydrofuran-3,4-diol] |  | 26 µM
Nc1ncnc2c1ncn2[C@H]1O[C@@H](CSCCNc2cc(Cl)ncn2)[C@H](O)[C@@H]1O [Example 4] | 48 µM | 60 µM
C=CC(=O)NCCSC[C@@H]1O[C@H](n2cnc3c(N)ncnc32)[C@@H](O)[C@H]1O [Example 5, N-(2-((((2R,3R,4S,5S)-5-(6-Amino-9H-purin-9-yl)-3,4-di hydroxytetrahydrofuran-2-yl)methyl)thio)ethyl)acrylamide] | 49 µM | 24 µM
